According to patent US20240287139A1, “A NOVEL COMPOUND ACTING AGAINST A SELECT GROUP OF BACTERIA” (priority 2021, published 2024):
≈ marks a conversion by molar mass, not a printed value. Like-named read-outs stand apart in the source and are kept apart here. *1 amine or outer side, *2 acyl side, *3 side chain or, on linkers, in order; H or OH if unused. Where a SMILES comes first, the peptide text is derived from it. Bridges are numbered along the chain shown (N, C = ends). [ ]: non-standard residue; d: D form. The star is where a group is joined. ξ: configuration not given here. ξThr(3R)(O-yl) = C[C@@H](O[*:3])C(N[*:1])C(=O)[*:2]; βAsp = O=C(O)[C@H](CC(=O)[*:2])N[*:1]; His(π-Me) = Cn1cncc1C[C@H](N)C(=O)O; For = O=C*

Experiments:
[1] = system: Mycobacterium tuberculosis H37Rv mc^26020; experiment: microbe, parasite or virus in culture; assay type: cell-based
[2] = system: FaDu
[3] = system: Streptococcus parasanguinis KLE 2509; experiment: microbe, parasite or virus in culture; assay type: cell-based; settings: KLE2509; Streptococcus parasanguinis KLE 2509, anaerobic conditions, human stool isolate
[4] = system: Staphylococcus aureus HG003; experiment: microbe, parasite or virus in culture; assay type: cell-based
[5] = system: Escherichia coli MG1655; experiment: microbe, parasite or virus in culture; assay type: cell-based
[6] = system: FaDu; experiment: cells; settings: Homo sapiens, read-out: Human cell line (IC50)
[7] = system: HepG2; experiment: cells; settings: Homo sapiens, HepG2, read-out: Human cell line (IC50)
[8] = system: E. coli WO153; experiment: Macromolecule incorporation assay; assay type: cell-based; settings: 8×MIC
Experimental: Incorporation of ^14C-thymidine (DNA), ^14C-uridine (RNA), ^14C-L-amino acid mixture (protein), ^14C-acetic acid (fatty acid) and ^14C-acetyl-glucosamine (peptidoglycan) was determined in cells treated with 8×MIC of the compound of Formula IV (grey bars). Ciprofloxacin (8×MIC), rifampicin (8×MIC), chloramphenicol (8×MIC), triclosan (8×MIC) and fosfomycin (8×MIC) were used as controls (white bars). There were n=3 biologically independent samples.
Macromolecular synthesis assay against DNA, RNA, protein and fatty acid were analyzed by ImQuest BioSciences Inc. (MD, USA) with E. coli WO153 cells.

[9] = system: commensal bacteria including Lactobacillus sp. and Bacteroides sp.; assay type: cell-based
[10] = system: Escherichia coli ΔtolC; experiment: microbe, parasite or virus in culture; assay type: cell-based
[11] = system: Bacteroides fragilis KLE 2244; experiment: microbe, parasite or virus in culture; assay type: cell-based; settings: KLE2244; Bacteroides fragilis KLE 2244, anaerobic conditions, human stool isolate
[12] = system: Enterococcus faecalis KLE 2341; experiment: microbe, parasite or virus in culture; assay type: cell-based; settings: KLE2341; Enterococcus faecalis KLE 2341, anaerobic conditions, human stool isolate
[13] = system: Veillonella ratti KLE 2365; experiment: microbe, parasite or virus in culture; assay type: cell-based; settings: KLE2365; Veillonella ratti KLE 2365, anaerobic conditions, human stool isolate
[14] = system: Bacteroides stercoris KLE 2537; experiment: microbe, parasite or virus in culture; assay type: cell-based; settings: KLE2537; Bacteroides stercoris KLE 2537, anaerobic conditions, human stool isolate
[15] = assay type: in vivo, mouse; settings: intraperitoneally at 100 mg kg^−1, observed for 24 hours
[16] = system: Escherichia coli ΔSbmA; experiment: microbe, parasite or virus in culture; assay type: cell-based; settings: Keio collection mutant
[17] = system: Escherichia coli WO153; experiment: microbe, parasite or virus in culture; assay type: cell-based
[18] = system: HEK293; experiment: cells; settings: Homo sapiens, HEK293, read-out: Human cell line (IC50)
[19] = system: Clostridium perfringens KLE 2523; experiment: microbe, parasite or virus in culture; assay type: cell-based; settings: KLE2523
[20] = system: Mycobacterium tuberculosis H37Rv mc^26020 ΔbacA; experiment: microbe, parasite or virus in culture; assay type: cell-based
[21] = system: M. tuberculosis H37Rv mc^26020; experiment: Time-dependent killing; assay type: cell-based; settings: 10×MIC
[22] = physchem; settings: water
[23] = molecular target: E. coli gyrase (Escherichia coli, UniProt P0AES4+P0AES6); assay type: biochemical; settings: 100 μM compound
Sequence of E. coli gyrase (P0AES4 whole entry, one chain of several): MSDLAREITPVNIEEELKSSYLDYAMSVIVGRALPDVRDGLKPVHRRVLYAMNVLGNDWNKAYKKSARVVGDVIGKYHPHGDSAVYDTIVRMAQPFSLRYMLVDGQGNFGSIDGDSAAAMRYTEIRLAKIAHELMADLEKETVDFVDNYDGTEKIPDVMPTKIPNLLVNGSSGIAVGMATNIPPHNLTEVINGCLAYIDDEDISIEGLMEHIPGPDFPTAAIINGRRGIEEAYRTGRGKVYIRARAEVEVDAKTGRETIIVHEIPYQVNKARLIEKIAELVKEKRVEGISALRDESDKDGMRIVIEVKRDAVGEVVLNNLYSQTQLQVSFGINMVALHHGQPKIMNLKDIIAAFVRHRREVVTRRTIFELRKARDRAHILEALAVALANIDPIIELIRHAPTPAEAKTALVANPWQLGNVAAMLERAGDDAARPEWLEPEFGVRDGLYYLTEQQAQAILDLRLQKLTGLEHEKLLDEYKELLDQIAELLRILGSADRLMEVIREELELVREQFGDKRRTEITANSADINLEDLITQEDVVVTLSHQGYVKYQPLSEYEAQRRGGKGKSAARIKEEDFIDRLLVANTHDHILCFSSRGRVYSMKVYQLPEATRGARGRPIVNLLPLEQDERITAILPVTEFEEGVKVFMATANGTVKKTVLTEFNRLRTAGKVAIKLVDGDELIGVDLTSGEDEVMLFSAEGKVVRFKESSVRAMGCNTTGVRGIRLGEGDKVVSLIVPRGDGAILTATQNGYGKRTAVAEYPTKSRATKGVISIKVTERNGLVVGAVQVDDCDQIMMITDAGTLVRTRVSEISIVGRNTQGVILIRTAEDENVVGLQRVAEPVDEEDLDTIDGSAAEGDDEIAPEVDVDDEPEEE

[24] = system: Escherichia coli BW25113; experiment: microbe, parasite or virus in culture; assay type: cell-based
[25] = system: HepG2
[26] = molecular target: T1, MtbGyrase (Mycobacterium tuberculosis, UniProt P9WG45+P9WG47); experiment: DNA-stimulated ATPase assay (NADH-coupled); settings: 250 nM gyrase, 100 μM drug
T1 sequence (P9WG45 whole entry, looked up): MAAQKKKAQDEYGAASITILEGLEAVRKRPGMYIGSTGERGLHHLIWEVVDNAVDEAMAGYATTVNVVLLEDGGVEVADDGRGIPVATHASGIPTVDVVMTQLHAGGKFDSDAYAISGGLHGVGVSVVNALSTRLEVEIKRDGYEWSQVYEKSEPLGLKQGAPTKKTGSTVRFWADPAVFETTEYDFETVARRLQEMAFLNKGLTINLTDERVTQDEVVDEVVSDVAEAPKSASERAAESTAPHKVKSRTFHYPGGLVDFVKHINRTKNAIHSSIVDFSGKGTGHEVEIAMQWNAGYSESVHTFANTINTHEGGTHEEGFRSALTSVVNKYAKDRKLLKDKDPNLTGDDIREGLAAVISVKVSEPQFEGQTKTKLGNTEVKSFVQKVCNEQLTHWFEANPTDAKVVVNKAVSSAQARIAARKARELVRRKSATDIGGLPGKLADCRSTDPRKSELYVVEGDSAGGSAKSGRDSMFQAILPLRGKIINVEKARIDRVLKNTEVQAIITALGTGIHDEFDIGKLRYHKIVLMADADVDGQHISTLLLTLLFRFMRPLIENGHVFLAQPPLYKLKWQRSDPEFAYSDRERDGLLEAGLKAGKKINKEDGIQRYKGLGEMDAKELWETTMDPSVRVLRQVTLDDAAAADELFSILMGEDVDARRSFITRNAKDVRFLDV
T1 sequence (P9WG47 whole entry, looked up): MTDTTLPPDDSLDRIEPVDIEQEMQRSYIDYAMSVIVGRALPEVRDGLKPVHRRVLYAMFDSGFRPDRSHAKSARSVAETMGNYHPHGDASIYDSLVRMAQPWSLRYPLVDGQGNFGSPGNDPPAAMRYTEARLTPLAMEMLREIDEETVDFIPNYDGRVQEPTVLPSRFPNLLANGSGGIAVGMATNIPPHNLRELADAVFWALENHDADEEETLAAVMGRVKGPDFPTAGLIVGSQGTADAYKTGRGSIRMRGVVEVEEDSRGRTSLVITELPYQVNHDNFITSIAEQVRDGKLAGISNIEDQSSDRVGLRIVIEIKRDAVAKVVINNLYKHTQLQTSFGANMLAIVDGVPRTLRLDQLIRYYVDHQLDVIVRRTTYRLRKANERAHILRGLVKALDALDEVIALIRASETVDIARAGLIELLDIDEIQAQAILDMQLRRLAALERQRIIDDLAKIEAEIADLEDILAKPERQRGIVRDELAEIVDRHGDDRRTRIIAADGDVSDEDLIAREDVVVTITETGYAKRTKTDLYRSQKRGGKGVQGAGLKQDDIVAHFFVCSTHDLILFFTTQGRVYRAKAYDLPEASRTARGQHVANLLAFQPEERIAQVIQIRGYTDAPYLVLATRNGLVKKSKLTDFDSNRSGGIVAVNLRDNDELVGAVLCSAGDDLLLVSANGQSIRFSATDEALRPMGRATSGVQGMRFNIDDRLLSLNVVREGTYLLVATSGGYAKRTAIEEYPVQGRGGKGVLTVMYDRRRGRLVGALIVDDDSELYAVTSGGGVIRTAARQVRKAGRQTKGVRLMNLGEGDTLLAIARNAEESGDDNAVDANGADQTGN

[27] = molecular target: E. coli topoisomerase IV (topo IV) (Escherichia coli, UniProt P0AFI2+P20083); assay type: biochemical; settings: 100 μM compound; strong cleavage visible at 5 nM enzyme
Sequence of E. coli topoisomerase IV (topo IV) (P20083 whole entry): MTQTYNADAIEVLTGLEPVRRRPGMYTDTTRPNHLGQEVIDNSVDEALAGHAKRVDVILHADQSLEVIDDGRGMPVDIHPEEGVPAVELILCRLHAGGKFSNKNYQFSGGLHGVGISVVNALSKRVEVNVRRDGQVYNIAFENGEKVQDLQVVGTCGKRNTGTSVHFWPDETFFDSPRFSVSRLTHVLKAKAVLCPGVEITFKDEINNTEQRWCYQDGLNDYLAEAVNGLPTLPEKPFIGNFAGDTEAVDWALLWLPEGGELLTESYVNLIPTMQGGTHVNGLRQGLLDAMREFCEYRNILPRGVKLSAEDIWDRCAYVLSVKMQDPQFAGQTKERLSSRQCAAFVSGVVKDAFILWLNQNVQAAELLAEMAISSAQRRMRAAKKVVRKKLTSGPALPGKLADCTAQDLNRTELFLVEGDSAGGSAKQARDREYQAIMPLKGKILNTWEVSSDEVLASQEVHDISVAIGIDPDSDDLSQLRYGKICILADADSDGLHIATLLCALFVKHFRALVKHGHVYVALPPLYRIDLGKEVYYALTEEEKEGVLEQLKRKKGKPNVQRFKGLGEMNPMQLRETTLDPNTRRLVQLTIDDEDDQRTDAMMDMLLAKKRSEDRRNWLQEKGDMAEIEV
Sequence of E. coli topoisomerase IV (topo IV) (P0AFI2 whole entry): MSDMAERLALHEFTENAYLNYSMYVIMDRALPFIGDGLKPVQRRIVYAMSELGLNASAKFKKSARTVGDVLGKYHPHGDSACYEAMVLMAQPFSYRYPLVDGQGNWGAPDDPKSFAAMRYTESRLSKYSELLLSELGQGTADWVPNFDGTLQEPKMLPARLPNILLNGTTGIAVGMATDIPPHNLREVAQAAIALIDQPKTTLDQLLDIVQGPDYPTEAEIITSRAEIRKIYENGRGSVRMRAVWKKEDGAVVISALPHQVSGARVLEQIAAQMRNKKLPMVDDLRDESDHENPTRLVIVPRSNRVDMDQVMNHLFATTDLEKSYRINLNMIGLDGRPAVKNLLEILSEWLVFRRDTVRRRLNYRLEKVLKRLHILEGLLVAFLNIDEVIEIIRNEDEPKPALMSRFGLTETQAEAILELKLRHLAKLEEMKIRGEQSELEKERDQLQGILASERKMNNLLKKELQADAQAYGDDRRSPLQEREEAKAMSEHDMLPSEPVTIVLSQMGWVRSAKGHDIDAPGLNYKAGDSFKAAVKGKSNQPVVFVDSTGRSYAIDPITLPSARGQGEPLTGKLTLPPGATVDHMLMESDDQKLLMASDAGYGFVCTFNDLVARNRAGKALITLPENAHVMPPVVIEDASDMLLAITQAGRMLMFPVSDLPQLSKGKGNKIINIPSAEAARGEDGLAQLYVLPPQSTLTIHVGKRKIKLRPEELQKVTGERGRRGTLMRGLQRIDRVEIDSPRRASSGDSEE

[28] = system: wild type E. coli; experiment: microbe, parasite or virus in culture; assay type: cell-based; settings: Escherichia coli
[29] = system: Mycobacterium tuberculosis H37Rv mc^26020 mCherry; experiment: microbe, parasite or virus in culture; assay type: cell-based
[30] = system: Pseudomonas aeruginosa PA01; experiment: microbe, parasite or virus in culture; assay type: cell-based
[31] = molecular target: T1, MtbGyrase; experiment: biochemical; design: species or system M. tuberculosis; settings: 20 nM MtbGyrase
[32] = molecular target: T1, MtbGyrase; assay type: biochemical, M. tuberculosis; settings: 100 μM compound, 0-20 nM enzyme
[33] = system: HEK293
[34] = system: Salmonella enterica KLE 2601; experiment: microbe, parasite or virus in culture; assay type: cell-based; settings: KLE2601; Salmonella enterica KLE 2601, anaerobic conditions, human stool isolate
[35] = system: M. tuberculosis; experiment: Microscopy, cell elongation; assay type: cell-based; settings: 10×MIC, 48 hours of treatment
[36] = system: Mycobacterium smegmatis mc^2155; experiment: microbe, parasite or virus in culture; assay type: cell-based; settings: Mycolicibacterium smegmatis
[37] = system: Escherichia coli ATCC25922; experiment: microbe, parasite or virus in culture; assay type: cell-based
[38] = system: Klebsiella pneumoniae ATCC 700603; experiment: microbe, parasite or virus in culture; assay type: cell-based; settings: ATCC700603
[39] = system: Mycobacterium abscessus ATCC 19977; experiment: microbe, parasite or virus in culture; assay type: cell-based; settings: Mycobacteroides abscessus, ATCC19977
[40] = system: Acinetobacter baumannii ATCC 17978; experiment: microbe, parasite or virus in culture; assay type: cell-based; settings: ATCC17978
[41] = system: Lactobacillus reuteri LTH5448; experiment: microbe, parasite or virus in culture; assay type: cell-based; settings: Limosilactobacillus reuteri; Lactobacillus reuteri LTH5448, anaerobic conditions
[42] = system: Lactobacillus paracasei KLE 2504; experiment: microbe, parasite or virus in culture; assay type: cell-based; settings: Lacticaseibacillus paracasei, KLE2504; Lactobacillus paracasei KLE 2504, anaerobic conditions, human stool isolate
[43] = system: E. coli ATCC 25922; experiment: Septicemia model, survival; assay type: in vivo, mice; settings: 1 h after infection
Experimental: The inventors next tested the compound of Formula IV in a simple model of septicemia infection with E. coli to evaluate its potential for activity in vivo. […] Mice were infected with E. coli ATCC25922 intraperitoneally for 1 hour followed by intraperitoneal administration of the compound of Formula IV.
Animal study was performed at Northeastern University, approved by Northeastern IACUC, and was performed according to institutional animal care and policies. Experiments were not randomized nor blinded, as it was not deemed necessary. Female CD-1 mice (20-25 g, experimentally naive, 6 weeks old) from Charles River were used for all studies. The compound of Formula IV was tested in a septicemia model against E. coli ATCC 25922. Mice were infected with 0.5 ml of E. coli ATCC 25922 suspension in BHI with 5% mucin (1×10^6 to 5×10^6) via intraperitoneal injection. This dose achieves >83% mortality within 24 h after infection. At 1 h after infection, mice were treated by the compound of Formula IV from 10 mg kg^−1 to 100 mg kg^−1 by intraperitoneal injection. Infection control mice were treated with 50 mg kg^−1 gentamicin as positive control. Survival was monitored for 120 h.

[44] = Mycobacterium tuberculosis, M. tuberculosis H37Rv mc^26020, read-out: MIC

COc1c(N2C[C@@H]3CCCN[C@@H]3C2)c(F)cc2c(=O)c(C(=O)O)cn(C3CC3)c12 [Moxifloxacin, reference compound]
MIC [1, 44]: 0.125 µg/mL (≈ 0.311 µM)

C[C@H]1OC(=O)C[C@@H](C(=O)O)NC(=O)[C@H](CO)NC(=O)[C@@H](CCCNC(=N)N)NC(=O)CNC(=O)[C@H](Cc2ccccc2)NC(=O)[C@@H](CO)NC(=O)C[C@@H](C(=O)O)NC(=O)[C@H](Cc2cncn2C)NC(=O)C1NC(=O)[C@@H](CCCNC(=N)N)NC(=O)[C@@H](NC(=O)[C@H](Cc1c[nH]c2ccccc12)NC=O)[C@@H](C)O (stereo partly drawn) [compound of Formula IV] (For-WT[dR][ξThr(3R)(O-yl)][His(π-Me)][βAsp][dS]FG[dR]SD-OH; ester 4-12)
toxicity against human cell line [2]: no toxicity | MIC [3]: > 128 µg/mL | MIC [4]: 128 µg/mL | MIC [5]: 16 µg/mL | IC50 [6]: > 128 µg/mL | IC50 [7]: > 128 µg/mL | effect on DNA synthesis (^14C-thymidine incorporation) [8]: inhibits DNA synthesis | effect on RNA, protein and fatty acid synthesis [8]: less of an effect | activity against commensal bacteria [9]: no activity | MIC of tolC deletion mutant, times higher as compared to E. coli WO153 [10]: 4 times | MIC of tolC deletion mutant, times lower than in the wild type [10]: 64 times | MIC ([10]; Escherichia coli ΔtolC, Keio collection mutant): 0.25 µg/mL | MIC ([10]; Escherichia coli, E. coli tolC deletion mutant, read-out: MIC): 0.25 µg/mL | MIC [11]: 64 µg/mL | MIC [12]: > 128 µg/mL | MIC [13]: > 128 µg/mL | MIC [14]: > 128 µg/mL | toxicity in a mouse, survival [15]: no indications of toxicity | MIC [16]: 128 µg/mL | MIC ([17]; Escherichia coli WO153): 0.0625 µg/mL | MIC ([17]; Escherichia coli, E. coli WO153, compromised penetration barrier, read-out: MIC): 0.0625 µg/mL | IC50 [18]: > 128 µg/mL | MIC [19]: 64 µg/mL | MIC [20]: 16 µg/mL | killing of exponentially growing M. tuberculosis ([21]; exponential cells): highly bactericidal | killing of stationary M. tuberculosis ([21]; stationary cells): highly bactericidal | solubility [22]: > 40 mg/mL | inhibition of DNA supercoiling by gyrase compared with supercoil relaxation by topo IV [23]: more potent inhibitor of DNA supercoiling by gyrase | DNA cleavage by E. coli gyrase ([23]; strong cleavage visible at 5 nM enzyme): stimulated DNA cleavage | MIC [24]: 16 µg/mL | toxicity against human cell line [25]: no toxicity | overall rate (vmax) of ATPase activity [26]: 45±7.2 ATP·s^−1 per enzyme | DNA cleavage by E. coli topo IV [27]: stimulated DNA cleavage | MIC [28]: 16 µg/mL | MIC ([1]; Mycobacterium tuberculosis H37Rv mc^26020): 0.25 µg/mL | MIC [1, 44]: 0.25 µg/mL | MIC [29]: 0.0625 µg/mL | MIC [30]: > 128 µg/mL | DNA cleavage in the absence of ATP ([31]; absence of ATP): little to no cleavage | IC50 ([31]; in the presence of ATP): ~1000 nM | DNA cleavage by MtbGyrase [32]: induced DNA cleavage | supercoiling activity of MtbGyrase [32]: inhibited the supercoiling activity | toxicity against human cell line [33]: no toxicity | MIC [34]: 128 µg/mL | cell length compared to nontreated cells [35]: approximately 2 times | MIC [36]: 8 µg/mL | MIC [37]: 8 µg/mL | MIC [38]: 32 µg/mL | MIC [39]: 16 µg/mL | MIC [40]: 128 µg/mL | MIC [41]: > 128 µg/mL | MIC [42]: > 128 µg/mL | efficacy, septicemia infection with E. coli ATCC25922 ([43]; 100 mg kg^−1 dose intraperitoneal): completely protected | efficacy, septicemia infection with E. coli ATCC25922 ([43]; single dose of 25 mg kg^−1 intraperitoneal): significant efficacy
